The structures appear in SMILES notation.

This assay deals with BCL6 (Homo sapiens (Human), UniProt P41182). Kind of assay: Immunofluorescence high content imaging of BCL6 degradation in T47D cells. It is filed as cell-based. The following applies: class symbols A-D, read-out: EC50 (nM)*. The procedure, abridged:
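T47D, 3 d compound exposure, 11-pt 3-fold series, top 0.1 or 1 μM final. Fix 4% PFA, Triton permeabilize, anti-BCL6 primary overnight 4 °C, Alexa-488 secondary. High-content imaging 10×, 4 fields/well, top-hat smoothing.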
In the case of `CNC(=O)COc1cc2cc(Nc3nc(N4CCN(CCCN5CCN(c6ccc7c(c6)CN(C6CCC(=O)NC6=O)C7=O)CC5)CC4)ncc3Cl)ccc2n(C)c1=O` (stereo not shown) [compound 103, 2-((6-((5-chloro-2-(4-(3-(4-(2-(2,6-dioxopiperidin-3-yl)-1-oxoisoindolin-5-yl)piperazin-1-yl)propyl)piperazin-1-yl)pyrimidin-4-yl)amino)-1-methyl-2-oxo-1,2-dihydroquinolin-3-yl)oxy)-N-methylacetamide], the DC50 was in the range of 10 to 50 nM.

For `CN1C(=O)CCc2cc(Nc3cc(N4CCC(OCCOCCOCCOCCOCCOc5ccc6c(c5)CN(C5CCC(=O)NC5=O)C6=O)CC4)c([N+](=O)[O-])cc3Cl)ccc21` (stereo not shown) [compound 105, 3-(5-((14-((1-(4-chloro-5-((1-methyl-2-oxo-1,2,3,4-tetrahydroquinolin-6-yl)amino)-2-nitrophenyl)piperidin-4-yl)oxy)-3,6,9,12-tetraoxatetradecyl)oxy)-1-oxoisoindolin-2-yl)piperidine-2,6-dione], the DC50 is greater than 100 nM.

On to `CNC(=O)COc1cc2cc(Nc3nc(N4CCC(c5cn(CCOc6ccc7c(c6)C(=O)N(C6CCC(=O)NC6=O)C7=O)nn5)CC4)ncc3Cl)ccc2n(C)c1=O` (stereo not shown) [compound 106, 2-((6-((5-chloro-2-(4-(1-(2-((2-(2,6-dioxopiperidin-3-yl)-1,3-dioxoisoindolin-5-yl)oxy)ethyl)-1H-1,2,3-triazol-4-yl)piperidin-1-yl)pyrimidin-4-yl)amino)-1-methyl-2-oxo-1,2-dihydroquinolin-3-yl)oxy)-N-methylacetamide], for which the DC50 is 10 to 50 nM.

Consider `CNC(=O)COc1cc2cc(Nc3nc(N4CCC(c5cn(CCOCCOc6ccc7c(c6)C(=O)N(C6CCC(=O)NC6=O)C7=O)nn5)CC4)ncc3Cl)ccc2n(C)c1=O` (stereo not shown) [compound 107, 2-((6-((5-chloro-2-(4-(1-(2-(2-((2-(2,6-dioxopiperidin-3-yl)-1,3-dioxoisoindolin-5-yl)oxy)ethoxy)ethyl)-1H-1,2,3-triazol-4-yl)piperidin-1-yl)pyrimidin-4-yl)amino)-1-methyl-2-oxo-1,2-dihydroquinolin-3-yl)oxy)-N-methylacetamide], for which the DC50 was 10 to 50 nM.

On to `CNC(=O)COc1cc2cc(Nc3nc(N4CCC(c5cn(CCOCCOCCOCCOCC(=O)N[C@H](C(=O)N6C[C@H](O)C[C@H]6C(=O)N[C@@H](C)c6ccc(-c7scnc7C)cc6)C(C)(C)C)nn5)CC4)ncc3Cl)ccc2n(C)c1=O` [compound 108, (2S,4R)-1-((S)-2-(tert-butyl)-17-(4-(1-(5-chloro-4-((1-methyl-3-(2-(methylamino)-2-oxoethoxy)-2-oxo-1,2-dihydroquinolin-6-yl)amino)pyrimidin-2-yl)piperidin-4-yl)-1H-1,2,3-triazol-1-yl)-4-oxo-6,9,12,15-tetraoxa-3-azaheptadecanoyl)-4-hydroxy-N-((S)-1-(4-(4-methylthiazol-5-yl)phenyl)ethyl)pyrrolidine-2-carboxamide], for which the DC50 is 50 to 100 nM.

As for `CNC(=O)COc1cc2cc(Nc3nc(N4CCC(OCCOCCOCCOCCOc5cccc(-c6ccc7c(c6)CN(C6CCC(=O)NC6=O)C7=O)c5)CC4)ncc3Cl)ccc2n(C)c1=O` (stereo not shown) [compound 109, 2-((6-((5-chloro-2-(4-(2-(2-(2-(2-(3-(2-(2,6-dioxopiperidin-3-yl)-1-oxoisoindolin-5-yl)phenoxy)ethoxy)ethoxy)ethoxy)ethoxy)piperidin-1-yl)pyrimidin-4-yl)amino)-1-methyl-2-oxo-1,2-dihydroquinolin-3-yl)oxy)-N-methylacetamide], the DC50 was greater than 100 nM.

With `CNC(=O)COc1cc2cc(Nc3nc(N4CCC(OCCOCCOCCOc5ccccc5OCCOc5ccc6c(c5)CN(C5CCC(=O)NC5=O)C6=O)CC4)ncc3Cl)ccc2n(C)c1=O` (stereo not shown) [compound 110, 2-((6-((5-chloro-2-(4-(2-(2-(2-(2-(2-((2-(2,6-dioxopiperidin-3-yl)-1-oxoisoindolin-5-yl)oxy)ethoxy)phenoxy)ethoxy)ethoxy)ethoxy)piperidin-1-yl)pyrimidin-4-yl)amino)-1-methyl-2-oxo-1,2-dihydroquinolin-3-yl)oxy)-N-methylacetamide], the DC50 was greater than 100 nM.

Regarding `CNC(=O)COc1cc2cc(Nc3nc(N4CCC(OCCOCCOCCCOc5ccccc5CCOc5ccc6c(c5)CN(C5CCC(=O)NC5=O)C6=O)CC4)ncc3Cl)ccc2n(C)c1=O` (stereo not shown) [compound 111, 2-((6-((5-chloro-2-(4-(2-(2-(3-(2-(2-((2-(2,6-dioxopiperidin-3-yl)-1-oxoisoindolin-5-yl)oxy)ethyl)phenoxy)propoxy)ethoxy)ethoxy)piperidin-1-yl)pyrimidin-4-yl)amino)-1-methyl-2-oxo-1,2-dihydroquinolin-3-yl)oxy)-N-methylacetamide], the DC50 is greater than 100 nM.

For the compound `CNC(=O)COc1cc2cc(Nc3nc(N4CCC(Cc5cn(CCOc6ccc7c(c6)C(=O)N(C6CCC(=O)NC6=O)C7=O)nn5)CC4)ncc3Cl)ccc2n(C)c1=O` (stereo not shown) [compound 112, 2-((6-((5-chloro-2-(4-((1-(2-((2-(2,6-dioxopiperidin-3-yl)-1,3-dioxoisoindolin-5-yl)oxy)ethyl)-1H-1,2,3-triazol-4-yl)methyl)piperidin-1-yl)pyrimidin-4-yl)amino)-1-methyl-2-oxo-1,2-dihydroquinolin-3-yl)oxy)-N-methylacetamide], the DC50 fell in the range of 10 to 50 nM.

As to `CNC(=O)COc1cc2cc(Nc3nc(N4CCC(Cc5cn(CCOCCOc6ccc7c(c6)C(=O)N(C6CCC(=O)NC6=O)C7=O)nn5)CC4)ncc3Cl)ccc2n(C)c1=O` (stereo not shown) [compound 113, 2-((6-((5-chloro-2-(4-((1-(2-(2-((2-(2,6-dioxopiperidin-3-yl)-1,3-dioxoisoindolin-5-yl)oxy)ethoxy)ethyl)-1H-1,2,3-triazol-4-yl)methyl)piperidin-1-yl)pyrimidin-4-yl)amino)-1-methyl-2-oxo-1,2-dihydroquinolin-3-yl)oxy)-N-methylacetamide], the DC50 lay within 50 to 100 nM.

Turning to `CNC(=O)COc1cc2cc(Nc3nc(N4CCC(c5cn(CCOCC(=O)N[C@H](C(=O)N6C[C@H](O)C[C@H]6C(=O)N[C@@H](C)c6ccc(-c7scnc7C)cc6)C(C)(C)C)nn5)CC4)ncc3Cl)ccc2n(C)c1=O` [compound 114, (2S,4R)-1-((S)-2-(2-(2-(4-(1-(5-chloro-4-((1-methyl-3-(2-(methylamino)-2-oxoethoxy)-2-oxo-1,2-dihydroquinolin-6-yl)amino)pyrimidin-2-yl)piperidin-4-yl)-1H-1,2,3-triazol-1-yl)ethoxy)acetamido)-3,3-dimethylbutanoyl)-4-hydroxy-N-((S)-1-(4-(4-methylthiazol-5-yl)phenyl)ethyl)pyrrolidine-2-carboxamide], the DC50 fell in the range of 50 to 100 nM.

For the compound `CNC(=O)COc1cc2cc(Nc3nc(N4CCC(c5cn(CCOCCOCC(=O)N[C@H](C(=O)N6C[C@H](O)C[C@H]6C(=O)N[C@@H](C)c6ccc(-c7scnc7C)cc6)C(C)(C)C)nn5)CC4)ncc3Cl)ccc2n(C)c1=O` [compound 115, (2S,4R)-1-((S)-2-(2-(2-(2-(4-(1-(5-chloro-4-((1-methyl-3-(2-(methylamino)-2-oxoethoxy)-2-oxo-1,2-dihydroquinolin-6-yl)amino)pyrimidin-2-yl)piperidin-4-yl)-1H-1,2,3-triazol-1-yl)ethoxy)ethoxy)acetamido)-3,3-dimethylbutanoyl)-4-hydroxy-N-((S)-1-(4-(4-methylthiazol-5-yl)phenyl)ethyl)pyrrolidine-2-carboxamide], the DC50 fell in the range of 10 to 50 nM.

Take `CNC(=O)COc1cc2cc(Nc3nc(N4CCC(c5cn(CCOCCOCCOCC(=O)N[C@H](C(=O)N6C[C@H](O)C[C@H]6C(=O)N[C@@H](C)c6ccc(-c7scnc7C)cc6)C(C)(C)C)nn5)CC4)ncc3Cl)ccc2n(C)c1=O` [compound 116, (2S,4R)-1-((S)-2-(tert-butyl)-14-(4-(1-(5-chloro-4-((1-methyl-3-(2-(methylamino)-2-oxoethoxy)-2-oxo-1,2-dihydroquinolin-6-yl)amino)pyrimidin-2-yl)piperidin-4-yl)-1H-1,2,3-triazol-1-yl)-4-oxo-6,9,12-trioxa-3-azatetradecanoyl)-4-hydroxy-N-((S)-1-(4-(4-methylthiazol-5-yl)phenyl)ethyl) pyrrolidine-2-carboxamide]: the DC50 lay in the range of 10 to 50 nM.

On to `CNC(=O)COc1cc2cc(Nc3nc(N4CCC(c5cn(CCOCCOCCOCCOCCOCC(=O)N[C@H](C(=O)N6C[C@H](O)C[C@H]6C(=O)N[C@@H](C)c6ccc(-c7scnc7C)cc6)C(C)(C)C)nn5)CC4)ncc3Cl)ccc2n(C)c1=O` [compound 117, (2S,4R)-1-((S)-2-(tert-butyl)-20-(4-(1-(5-chloro-4-((1-methyl-3-(2-(methylamino)-2-oxoethoxy)-2-oxo-1,2-dihydroquinolin-6-yl)amino)pyrimidin-2-yl)piperidin-4-yl)-1H-1,2,3-triazol-1-yl)-4-oxo-6,9,12,15,18-pentaoxa-3-azaicosanoyl)-4-hydroxy-N-((S)-1-(4-(4-methylthiazol-5-yl)phenyl)ethyl)pyrrolidine-2-carboxamide], for which the DC50 was in the range of 10 to 50 nM.

Turning to `CNC(=O)COc1cc2cc(Nc3nc(N4CCC(OCc5ccc(OCCOCCOCCOc6ccc7c(c6)CN(C6CCC(=O)NC6=O)C7=O)cc5)CC4)ncc3Cl)ccc2n(C)c1=O` (stereo not shown) [compound 118, 2-((6-((5-chloro-2-(4-((4-(2-(2-(2-((2-(2,6-dioxopiperidin-3-yl)-1-oxoisoindolin-5-yl)oxy)ethoxy)ethoxy)ethoxy)benzyl)oxy)piperidin-1-yl)pyrimidin-4-yl)amino)-1-methyl-2-oxo-1,2-dihydroquinolin-3-yl)oxy)-N-methylacetamide], the DC50 lay within 50 to 100 nM.

On to `CNC(=O)COc1cc2cc(Nc3nc(N4CCC(c5cn(CCOCCOCCOc6ccc7c(c6)C(=O)N(C6CCC(=O)NC6=O)C7=O)nn5)CC4)ncc3Cl)ccc2n(C)c1=O` (stereo not shown) [compound 120, 2-((6-((5-chloro-2-(4-(1-(2-(2-(2-((2-(2,6-dioxopiperidin-3-yl)-1,3-dioxoisoindolin-5-yl)oxy)ethoxy)ethoxy)ethyl)-1H-1,2,3-triazol-4-yl)piperidin-1-yl)pyrimidin-4-yl)amino)-1-methyl-2-oxo-1,2-dihydroquinolin-3-yl)oxy)-N-methylacetamide], for which the DC50 lay in the range of 50 to 100 nM.

The record behind these values is patent publication US12310975B2, “Modulators of BCL6 proteolysis and associated methods of use” (Arvinas Operations, Inc., priority 2019, dated 2025).
